Test results from US10047087B2, “Substituted pyrazolo[1,5-A] pyridine as tropomyosin receptor kinase (TrK) inhibitors” (Dr. Reddy's Laboratories Ltd., priority 2011, dated 2018).
pIC50: −log10 of the molar value.

How the values were obtained:
[1] = target: T1, TrkA kinase (Homo sapiens, UniProt P04629); assay: In vitro TrkA inhibitory activity using TR-FRET assay; format: biochemical; conditions: 5 ng TrkA, 500 μM ATP, read-out: TrkA inhibition in-vitro IC50
T1 construct: purchased Upstate, USA
T1 sequence (P04629 33-796): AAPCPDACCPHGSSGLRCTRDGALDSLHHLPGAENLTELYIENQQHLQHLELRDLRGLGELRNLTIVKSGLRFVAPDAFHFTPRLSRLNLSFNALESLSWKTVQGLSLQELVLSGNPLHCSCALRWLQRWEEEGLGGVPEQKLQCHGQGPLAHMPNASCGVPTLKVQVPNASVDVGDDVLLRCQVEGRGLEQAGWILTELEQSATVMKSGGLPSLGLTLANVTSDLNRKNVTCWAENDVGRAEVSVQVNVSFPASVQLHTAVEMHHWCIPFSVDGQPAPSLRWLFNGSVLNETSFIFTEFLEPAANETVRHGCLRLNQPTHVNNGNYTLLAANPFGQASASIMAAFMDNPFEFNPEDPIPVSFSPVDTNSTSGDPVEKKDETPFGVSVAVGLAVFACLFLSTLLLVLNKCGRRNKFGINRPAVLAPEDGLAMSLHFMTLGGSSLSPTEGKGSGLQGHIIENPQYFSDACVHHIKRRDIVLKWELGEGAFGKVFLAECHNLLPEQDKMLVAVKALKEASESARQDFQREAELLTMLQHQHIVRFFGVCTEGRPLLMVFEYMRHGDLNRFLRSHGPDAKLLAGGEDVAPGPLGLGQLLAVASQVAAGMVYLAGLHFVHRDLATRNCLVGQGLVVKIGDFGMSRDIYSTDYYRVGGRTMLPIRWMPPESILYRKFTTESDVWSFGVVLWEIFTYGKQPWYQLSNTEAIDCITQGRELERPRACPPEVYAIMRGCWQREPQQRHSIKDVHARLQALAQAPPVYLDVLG
Outline: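 Kinase (5 ng) was preincubated with compound for 30 min at 20-35° C before adding 40 nM ULight poly GT and 500 μM ATP; stopped with EDTA after 30 min. Eu-anti-phosphotyrosine antibody (0.5 nM) was read at 615/665 nm with 1% DMSO final. Compounds showing >25% inhibition at 1 μM went to sigmoidal dose-response IC50 fitting.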

[2] = Metabolic stability using Human Liver Microsomes (HLM); format: in vitro ADME; conditions: pooled human liver microsomes, compound 1 μM, 0.3 mg/ml microsomal protein, 1 mM NADPH
Experimental: Stability Protocol: Metabolic Stability Using Rat Liver Microsomes (RLM) and Human Liver Microsomes (HLM).
This assay was performed using pooled male rat liver microsomes (In-house prepared as per SOP), Pooled Human liver microsomes (XENOTECH; Batch No— H0630-1110189)). The 100 μl reaction contains the compounds at 1 μM, 0.3 mg/ml microsomal protein and both the co-factors (1 mM NADPH) in buffer and the mixture was incubated at different time points (0, 15, 30, 45, 60, & 90 minutes). The reaction was stopped by the addition of equal volume of acetonitrile containing internal standard (Telmesartin). The precipitated protein was removed by centrifugation and the supernatant were analyzed LC/MS-MS method. The percent parent compound remaining was quantified by analysis using following formula (% parent compound remaining=(peak area at Time x/peak area at T0)×100. The intrinsic clearance was calculated using the following formula. CLint,app: (0.693/in vitro t½)(incubation volume/mg of microsomal protein)(45 mg microsomal protein/gram of liver)(20^a g of liver/kg body weight) • a: 20 and 45 g of liver/kg of body weight were used for human and rat, respectively (Lu C et al., DMD, 2006). Bio-analysis: It was performed in Multiple Reaction Monitoring mode (negative mode) using Applied Biosystems API 4000 coupled to Agilent Technologies 1100 series HPLC on a reverse phase column (Zorbax Eclipse XDB C18, 50×4.6 mm, 5 μm). Celecoxib was used as internal standard both in in-vitro and in-vivo experiments. Mobile phase used 0.05% […] water and acetonitrile (10:90) with a flow rate of 0.6 ml/minute. The injection volume was kept as 10 μl.

Row | Structure (SMILES) | pIC50 [1] | half-life at 1 μM [2] [h]
1 | CN(C)S(=O)(=O)NC(=O)c1cnn2ccc(N3C[C@@H](F)C[C@@H]3c3cc(F)ccc3F)cc12 [Example 78, 5-((2R,4S)-2-(2,5-difluorophenyl)-4-fluoropyrrolidin-1-yl)-N-(N,N-dimethylsulfamoyl) pyrazolo[1,5-a]pyridine-3-carboxamide] | ≥ 7.30 | > 1.33
2 | CC(C)(C)S(=O)(=O)NC(=O)c1cnn2ccc(N3CCC[C@@H]3c3cc(F)ccc3OCCF)cc12 [Example 57, (R)-N-(tert-butylsulfonyl)-5-(2-(5-fluoro-2-(2-fluoroethoxy)phenyl)pyrrolidin-1-yl) pyrazolo[1,5-a]pyridine-3-carboxamide] | ≥ 7.30 | > 1.33
